These compounds were tested against T1, EGFR (L858R & T790M) (Homo sapiens, UniProt P00533, L858R/T790M) (assay: EGFR (L858R & T790M) inhibition assay, HTRF method). Details: biochemical HTRF; EGFR (T790M/L858R) 2.5 nM, ATP 5 μM, 60 min room temperature.
T1 construct: GST; purchased Proqinase
In short: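 GST-EGFR T790M/L858R (2.5 nM) phosphorylating biotinylated gastrin precursor peptide (0.5 μM) with 5 μM ATP in HEPES pH 7.4/Mg/Mn buffer, 60 min room temperature; compounds from 10 μM top. HTRF read-out (Eu anti-pTyr, SA-APC), 665/620 nm; IC50 from % inhibition.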

T1 sequence (P00533 25-1210 T790M/L858R): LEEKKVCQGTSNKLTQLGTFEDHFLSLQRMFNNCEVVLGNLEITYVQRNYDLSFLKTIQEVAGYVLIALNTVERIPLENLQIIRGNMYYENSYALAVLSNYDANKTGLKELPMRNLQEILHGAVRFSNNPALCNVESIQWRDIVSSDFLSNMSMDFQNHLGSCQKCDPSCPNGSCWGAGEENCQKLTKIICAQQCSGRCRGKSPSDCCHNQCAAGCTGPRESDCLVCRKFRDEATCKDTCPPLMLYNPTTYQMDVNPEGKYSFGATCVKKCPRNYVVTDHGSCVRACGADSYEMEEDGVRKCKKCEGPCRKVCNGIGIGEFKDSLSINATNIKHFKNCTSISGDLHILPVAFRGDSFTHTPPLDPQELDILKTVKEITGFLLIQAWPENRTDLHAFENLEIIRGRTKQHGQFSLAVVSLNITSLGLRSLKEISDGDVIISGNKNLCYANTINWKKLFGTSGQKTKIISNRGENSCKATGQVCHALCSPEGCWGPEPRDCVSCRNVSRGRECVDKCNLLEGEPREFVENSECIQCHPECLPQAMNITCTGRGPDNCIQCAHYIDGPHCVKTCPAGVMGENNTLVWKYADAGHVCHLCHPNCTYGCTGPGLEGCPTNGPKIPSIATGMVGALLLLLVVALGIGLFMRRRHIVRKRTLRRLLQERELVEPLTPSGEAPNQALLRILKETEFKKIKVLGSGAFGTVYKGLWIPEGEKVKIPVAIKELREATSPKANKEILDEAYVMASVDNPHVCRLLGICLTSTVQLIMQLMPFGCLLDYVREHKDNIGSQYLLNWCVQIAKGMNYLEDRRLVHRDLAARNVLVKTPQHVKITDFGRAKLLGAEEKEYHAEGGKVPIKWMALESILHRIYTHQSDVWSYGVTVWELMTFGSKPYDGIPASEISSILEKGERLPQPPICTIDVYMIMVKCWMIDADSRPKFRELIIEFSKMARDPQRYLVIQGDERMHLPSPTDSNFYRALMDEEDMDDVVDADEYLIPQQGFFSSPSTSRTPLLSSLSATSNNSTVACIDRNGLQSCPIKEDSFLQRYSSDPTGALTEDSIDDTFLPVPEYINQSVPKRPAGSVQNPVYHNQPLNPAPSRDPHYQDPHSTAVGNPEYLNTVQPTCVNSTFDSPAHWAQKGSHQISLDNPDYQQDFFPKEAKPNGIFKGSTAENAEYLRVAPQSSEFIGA

IC50 [nM]	Compound
> 100	C=CC(=O)N1CCCC(Nc2nc(Nc3cnn(C4CCC4)c3)ncc2Cl)C1 (single isomer, unassigned) [II-6 (Enantiomer 2), 1-(3-((5-chloro-2-((1-cyclobutyl-1H-pyrazol-4-yl)amino)pyrimidin-4-yl)amino)piperidin-1-yl)prop-2-en-1-one]
> 100	C=CC(=O)Nc1cccc(Nc2nc(Nc3cnn(C)c3)nc(C)c2Cl)c1 [Compound I-59, N-(3-((5-chloro-6-methyl-2-((1-methyl-1H-pyrazol-4-yl)amino)pyrimidin-4-yl)amino)phenyl)acrylamide]
10 to 100	C=CC(=O)Nc1cc(Nc2nc(Nc3cnn(C4CCN(C)CC4)c3)ncc2Cl)ccc1F [Compound I-67, N-(5-((5-chloro-2-((1-(1-methylpiperidin-4-yl)-1H-pyrazol-4-yl)amino)pyrimidin-4-yl)amino)-2-fluorophenyl)acrylamide]
> 100	CN1CCC(n2cc(Nc3ncc(F)c(Nc4cccc(NC(=O)C=C5CCCCC5)c4)n3)cn2)CC1 [Compound I-50, 2-cyclohexylidene-N-(3-((5-fluoro-2-((1-(1-methylpiperidin-4-yl)-1H-pyrazol-4-yl)amino)pyrimidin-4-yl)amino)phenyl)acetamide]
10 to 100	C=CC(=O)NC1CCCC(Nc2nc(Nc3cnn(C)c3)ncc2Cl)C1 (centres unmarked) [Compound I-92, N-(3-((5-chloro-2-((1-methyl-1H-pyrazol-4-yl)amino)pyrimidin-4-yl)amino)cyclohexyl)acrylamide]
> 100	C=CC(=O)N[C@H]1CCCC[C@@H](Nc2nc(Nc3cnn(C)c3)ncc2Cl)C1 (single isomer, unassigned) [I-112 (Isomer 1)]
> 100	C=CC(=O)NC1CCCC(Oc2nc(Nc3cnn(C)c3)ncc2Cl)C1 (single isomer, unassigned) [I-88 (Isomer 1), N-(3-((5-chloro-2-((1-methyl-1H-pyrazol-4-yl)amino)pyrimidin-4-yl)oxy)cyclohexyl)acrylamide]
10 to 100	C=CC(=O)Nc1cc(Nc2nc(Nc3cnn(C)c3)ncc2Cl)c(F)cc1F [Compound I-68, N-(5-((5-chloro-2-((1-methyl-1H-pyrazol-4-yl)amino)pyrimidin-4-yl)amino)-2,4-difluorophenyl)acrylamide]
10 to 100	C=CC(=O)Nc1cccc(Nc2nc(Nc3cnn(C)c3)ncc2C)c1 [Compound I-15, N-(3-((5-methyl-2-((1-methyl-1H-pyrazol-4-yl)amino)pyrimidin-4-yl)amino)phenyl)acrylamide]
10 to 100	C=CC(=O)Nc1cccc(Oc2nc(Nc3cnn(C(C)C)c3)ncc2Cl)c1 [Compound I-79, N-(3-((5-chloro-2-((1-isopropyl-1H-pyrazol-4-yl)amino)pyrimidin-4-yl)oxy)phenyl)acrylamide]
> 100	Cc1cc(Nc2ncc(Cl)c(NC3CCCC(NC(=O)/C=C/CN(C)C)C3)n2)sn1 (centres unmarked) [Compound I-115, (E)-N-(3-((5-chloro-2-((3-methylisothiazol-5-yl)amino)pyrimidin-4-yl)amino)cyclohexyl)-4-(dimethylamino)but-2-enamide]
< 10	C=CC(=O)Nc1cc(Nc2nc(Nc3cnn(C4CCN(C)CC4)c3)ncc2Cl)c(F)cc1F [Compound I-69, N-(5-((5-chloro-2-((1-(1-methylpiperidin-4-yl)-1H-pyrazol-4-yl)amino)pyrimidin-4-yl)amino)-2,4-difluorophenyl)acrylamide]
10 to 100	C=CC(=O)Nc1cccc(Nc2nc(Nc3nc(C)cs3)ncc2Cl)c1 [Compound I-124, N-(3-((5-chloro-2-((4-methylthiazol-2-yl)amino)pyrimidin-4-yl)amino)phenyl)acrylamide]
> 100	C=CC(=O)Nc1cccc(Oc2nc(Nc3c(C)nn(C)c3C)ncc2Cl)c1 [Compound I-84, N-(3-((5-chloro-2-((1,3,5-trimethyl-1H-pyrazol-4-yl)amino)pyrimidin-4-yl)oxy)phenyl)acrylamide]
> 100	C=CC(=O)Nc1cccc(Nc2nc(Nc3nnc(C(F)(F)F)s3)ncc2Cl)c1 [Compound I-44, N-(3-((5-chloro-2-((5-(trifluoromethyl)-1,3,4-thiadiazol-2-yl)amino)pyrimidin-4-yl)amino)phenyl)acrylamide]
10 to 100	C=CC(=O)Nc1cccc(Nc2nc(Nc3cnn(CCOC)c3)ncc2Cl)c1 [Compound I-20, N-(3-((5-chloro-2-((1-(2-methoxyethyl)-1H-pyrazol-4-yl)amino)pyrimidin-4-yl)amino)phenyl)acrylamide]
> 100	C=CC(=O)N[C@H]1CCC[C@H](Nc2nc(Nc3cnn(C)c3)ncc2Cl)C1 (single isomer, unassigned) [I-107 (Enantiomer 2)]
> 100	C=CC(=O)Nc1cccc(Nc2nc(Nc3cn(CCOC)nc3C)ncc2Cl)c1 [Compound I-2, N-(3-((5-chloro-2-((1-(2-methoxyethyl)-3-methyl-1H-pyrazol-4-yl)amino)pyrimidin-4-yl)amino)phenyl)acrylamide]
> 100	CN1CCC(n2cc(Nc3ncc(Cl)c(Nc4cccc(NC(=O)C=C5CCCCC5)c4)n3)cn2)CC1 [Compound I-28, N-(3-((5-chloro-2-((1-(1-methylpiperidin-4-yl)-1H-pyrazol-4-yl)amino)pyrimidin-4-yl)amino)phenyl)-2-cyclohexylideneacetamide]
> 100	C=CC(=O)NC1CCCC(Nc2nc(Nc3cnn(C)c3)ncc2Cl)C1 (centres unmarked) [Compound I-126, N-(3-((5-chloro-2-((1-methyl-1H-pyrazol-4-yl)amino)pyrimidin-4-yl)amino)cyclohexyl)acrylamide 4-methylbenzenesulfonate]
> 100	C=CC(=O)N(C)c1ccc(F)c(Nc2nc(Nc3cnn(C)c3)ncc2Cl)c1 [Compound I-110, N-(3-((5-chloro-2-((1-methyl-1H-pyrazol-4-yl)amino)pyrimidin-4-yl)amino)-4-fluorophenyl)-N-methylacrylamide]
10 to 100	C=CC(=O)Nc1cccc(Oc2nc(Nc3cc4n(n3)CCN(C)C4)ncc2Cl)c1 [Compound I-78, N-(3-((5-chloro-2-((5-methyl-4,5,6,7-tetrahydropyrazolo[1,5-a]pyrazin-2-yl)amino)pyrimidin-4-yl)oxy)phenyl)acrylamide]
> 100	C=CC(=O)Nc1cccc(Nc2nc(Nc3c(C)nn(C4CCN(C)CC4)c3C)ncc2Cl)c1 [Compound I-8, N-(3-((5-chloro-2-((3,5-dimethyl-1-(1-methylpiperidin-4-yl)-1H-pyrazol-4-yl)amino)pyrimidin-4-yl)amino)phenyl)acrylamide]
10 to 100	C=CC(=O)Nc1ccc(F)c(Nc2nc(Nc3cnn(C)c3C)ncc2Cl)c1 [Compound I-71, N-(3-((5-chloro-2-((1,5-dimethyl-1H-pyrazol-4-yl)amino)pyrimidin-4-yl)amino)-4-fluorophenyl)acrylamide]
> 100	CN(C)C/C=C/C(=O)N1CCCC(Nc2nc(Nc3cnn(C)c3)ncc2Cl)C1 (single isomer, unassigned) [II-4 (Enantiomer 2), (E)-1-(3-((5-chloro-2-((1-methyl-1H-pyrazol-4-yl)amino)pyrimidin-4-yl)amino)piperidin-1-yl)-4-(dimethylamino)but-2-en-1-one]
10 to 100	C=CC(=O)Nc1cccc(Nc2nc(Nc3cnn(CCN(C)C)c3)ncc2Cl)c1 [Compound I-5, N-(3-((5-chloro-2-((1-(2-(dimethylamino)ethyl)-1H-pyrazol-4-yl)amino)pyrimidin-4-yl)amino)phenyl)acrylamide]

— US10273224B2, “Substituted pyrimidine compounds, compositions and medicinal applications thereof” (JUBILANT BIOSYS LIMITED, priority 2013, dated 2019)
